Measurements: the supplement of paper PMC10307832

What was measured:
Experiment in all cases: relative viability (nuclei count vs DMSO), 5 days (fraction); higher = more cells survive
[1] = compound: C[C@]1(O)C[C@@H](c2nc(-c3ccc4ccc(-c5ccccc5)nc4c3)c3c(N)nccn32)C1 [Linsitinib] + Nc1ncn([C@H]2C[C@H](O)[C@@H](CO)O2)c(=O)n1 [Decitabine] (partner 2 µM)
Summary of the method: (§1)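 Lung cancer cell lines in 1536-well plates got either a single drug or a fixed anchor-drug dose together with five library-drug doses (not always all listed) in √10 steps, by pin tool, on the day after seeding. Nuclei were counted after 5 days, and relative viability is the treated-to-vehicle ratio of nuclei counts. Values are medians of duplicate plates.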

[2] = compound: Cc1ccc(C(=O)N(CCCN)[C@@H](c2nc3cc(Cl)ccc3c(=O)n2Cc2ccccc2)C(C)C)cc1 [Ispinesib] + CC(=O)Nc1cccc(-n2c(=O)n(C3CC3)c(=O)c3c(Nc4ccc(I)cc4F)n(C)c(=O)c(C)c32)c1 [Trametinib] (partner 0.02 µM)
Summary of the method: as §1

[3] = compound: Cc1ccc(C(=O)N(CCCN)[C@@H](c2nc3cc(Cl)ccc3c(=O)n2Cc2ccccc2)C(C)C)cc1 [Ispinesib] + CS(=O)(=O)CCNCc1ccc(-c2ccc3ncnc(Nc4ccc(OCc5cccc(F)c5)c(Cl)c4)c3c2)o1 [Lapatinib] (partner 2 µM)
Summary of the method: as §1

[4] = compound: Cc1ccc(C(=O)N(CCCN)[C@@H](c2nc3cc(Cl)ccc3c(=O)n2Cc2ccccc2)C(C)C)cc1 [Ispinesib] + Cc1cc(Nc2cc(N3CCN(C)CC3)nc(Sc3ccc(NC(=O)C4CC4)cc3)n2)n[nH]1 [Tozasertib] (partner 0.1 µM)
Summary of the method: as §1

| Cell Line | relative viability ([1]; first compound 0.01 µM) | relative viability ([1]; first compound 0.03162 µM) | relative viability ([1]; first compound 0.1 µM) | relative viability ([1]; first compound 0.3162 µM) | relative viability ([1]; first compound 1 µM) | relative viability ([2]; first compound 0.001 µM) | relative viability ([2]; first compound 0.003162 µM) | relative viability ([2]; first compound 0.01 µM) | relative viability ([2]; first compound 0.03162 µM) | relative viability ([2]; first compound 0.1 µM) | relative viability ([3]; first compound 0.001 µM) | relative viability ([3]; first compound 0.003162 µM) | relative viability ([3]; first compound 0.01 µM) | relative viability ([3]; first compound 0.03162 µM) | relative viability ([3]; first compound 0.1 µM) | relative viability ([4]; first compound 0.001 µM) | relative viability ([4]; first compound 0.003162 µM) | relative viability ([4]; first compound 0.01 µM) | relative viability ([4]; first compound 0.03162 µM) | relative viability ([4]; first compound 0.1 µM) |
| --- | --- | --- | --- | --- | --- | --- | --- | --- | --- | --- | --- | --- | --- | --- | --- | --- | --- | --- | --- | --- |
| NCI-H2085 | 0.525 | 0.59 | 0.509 | 0.528 | 0.618 | 0.498 | 0.563 | 0.58 | 0.519 | 0.472 | 0.721 | 0.857 | 0.81 | 0.444 | 0.314 | 0.881 | 0.855 | 1 | 0.76 | 0.651 |
| HCC-366 | 0.35 | 0.354 | 0.349 | 0.293 | 0.326 | 0.386 | 0.428 | 0.403 | 0.411 | 0.0793 | 1.03 | 1.12 | 1.33 | 0.0151 | 0.0387 | 0.172 | 0.13 | 0.663 | 0.0791 | 0.0441 |
| EPLC-272H | 0.316 | 0.375 | 0.389 | – | 0.344 | 0.302 | 0.277 | 0.306 | 0.225 | 0.206 | 0.919 | 1.11 | 1.02 | 0.561 | 0.145 | 0.211 | 0.448 | 0.24 | 0.114 | 0.25 |
| 201T | 0.868 | 0.881 | 0.904 | 0.832 | 0.889 | 0.743 | 0.75 | 0.729 | 0.692 | 0.678 | 1.06 | 1.07 | 1.1 | 0.916 | 0.431 | 0.919 | 0.979 | 0.998 | 0.999 | 0.587 |
| NCI-H3122 | 0.442 | 0.388 | 0.424 | – | 0.462 | 0.284 | 0.252 | 0.246 | 0.316 | 0.162 | 0.986 | 1.01 | 1.07 | 0.72 | 0.21 | 0.408 | 0.402 | 0.462 | 0.212 | 0.17 |
| NCI-H838 | 0.462 | 0.581 | 0.452 | 0.284 | 0.405 | 0.627 | 0.529 | 0.542 | 0.359 | 0.164 | 1.08 | 1.09 | 1.31 | 0.183 | 0.26 | 0.275 | 0.285 | 0.284 | 0.287 | 0.257 |
| NCI-H1755 | 0.719 | 0.856 | 0.719 | 0.559 | 0.702 | 0.843 | 0.838 | 0.751 | 0.713 | 0.758 | 1.02 | 1.16 | 1.09 | 0.41 | 0.203 | 0.529 | 0.627 | 0.595 | 0.638 | 0.46 |
| HCC-15 | 0.63 | 0.509 | 0.61 | 0.28 | 0.368 | 0.262 | 0.42 | 0.422 | 0.381 | 0.296 | 0.91 | 0.983 | 1.03 | 0.402 | 0.14 | 0.48 | 0.414 | 0.505 | 0.281 | 0.227 |
| NCI-H2087 | 0.275 | 0.387 | 0.257 | 0.259 | 0.267 | 0.153 | 0.196 | 0.212 | 0.236 | 0.0806 | 0.92 | 1.04 | 1.35 | 0.293 | 0.182 | 0.301 | 0.246 | 0.29 | 0.261 | 0.155 |
| NCI-H1650 | 0.571 | 0.449 | 0.415 | 0.325 | 0.361 | 0.726 | 0.581 | 0.556 | 0.417 | 0.315 | 0.799 | 0.715 | 0.387 | 0.211 | 0.208 | 0.382 | 0.364 | 0.397 | 0.139 | 0.257 |
| LK-2 | 0.221 | 0.407 | 0.232 | 0.187 | 0.185 | 0.742 | 0.819 | 0.801 | 0.751 | 0.516 | 1.07 | 1.07 | 0.908 | 0.681 | 0.313 | 0.159 | 0.175 | 0.183 | 0.158 | 0.158 |
| HCC-78 | – | 0.818 | 0.649 | 0.588 | 0.682 | 1.04 | 0.869 | 1.2 | 0.493 | 0.513 | 0.762 | 1.47 | 0.811 | – | 0.308 | 0.444 | 0.426 | 0.521 | 0.449 | 0.407 |
| NCI-H1666 | 0.622 | 0.79 | 0.732 | 0.521 | 0.602 | 0.934 | 0.864 | 0.788 | 0.858 | 0.604 | 0.703 | 0.801 | 0.596 | 0.279 | 0.292 | 0.56 | 0.601 | 0.613 | 0.542 | 0.454 |
| EKVX | – | 0.37 | 0.329 | 0.348 | 0.324 | 0.321 | – | 0.361 | 0.603 | 0.218 | 0.208 | 0.206 | 0.204 | 0.223 | 0.131 | 0.417 | 0.386 | 0.424 | 0.373 | 0.223 |
| COR-L 105 | 0.636 | 0.569 | 0.597 | 0.554 | 0.659 | 0.466 | 0.424 | 0.426 | 0.363 | 0.377 | 0.347 | 0.311 | 0.251 | 0.247 | 0.265 | 0.378 | 0.358 | 0.365 | 0.343 | 0.329 |
| NCI-H322M | 0.68 | 0.818 | 0.719 | 0.757 | 0.674 | 0.529 | 0.586 | 0.449 | 0.514 | 0.467 | 0.654 | 0.585 | 0.616 | 0.438 | 0.319 | 0.531 | 0.275 | 0.445 | 0.333 | 0.396 |
| HARA | 0.518 | 0.533 | 0.526 | – | 0.678 | 0.727 | 0.634 | 0.816 | 1.14 | 0.234 | 0.8 | 0.856 | 0.987 | 0.151 | 0.144 | 0.151 | 0.115 | 0.332 | 0.0895 | 0.107 |
| NCI-H2023 | 0.213 | – | 0.239 | 0.196 | 0.243 | 0.574 | 0.606 | 0.551 | 0.24 | 0.14 | 0.771 | 0.819 | 0.424 | 0.134 | 0.115 | 0.378 | 0.399 | 0.378 | 0.211 | 0.202 |
| NCI-H1437 | 0.541 | 0.551 | 0.555 | 0.4 | 0.599 | 0.557 | 0.541 | 0.688 | 0.614 | 0.144 | 0.98 | 0.928 | 0.901 | 0.419 | 0.206 | 0.449 | 0.442 | 0.434 | 0.378 | 0.272 |
| BEN | 0.526 | 0.945 | 0.65 | 0.442 | 0.747 | 1.07 | 1.17 | 1.15 | 0.916 | 0.677 | 0.906 | 0.892 | 0.7 | 0.357 | 0.247 | 0.508 | 0.464 | 0.548 | 0.633 | 0.574 |
| LXF-289 | 0.366 | 0.481 | 0.382 | 0.333 | 0.39 | 0.667 | 0.729 | 0.762 | 0.629 | 0.606 | 0.872 | 0.909 | 1.01 | 0.634 | 0.118 | 0.235 | 0.171 | 0.175 | 0.151 | 0.152 |
| NCI-H358 | 0.242 | 0.354 | 0.256 | 0.208 | 0.222 | 0.126 | 0.131 | 0.128 | 0.115 | 0.106 | 0.475 | 0.421 | 0.473 | 0.345 | 0.215 | 0.1 | 0.101 | 0.0892 | 0.116 | 0.0906 |
| NCI-H1993 | 0.646 | 0.564 | 0.473 | 0.506 | 0.499 | 0.619 | 0.527 | 0.414 | 0.508 | 0.423 | 0.871 | 0.899 | 0.764 | 0.759 | 0.58 | 0.54 | 0.509 | 0.574 | 0.519 | 0.588 |
| NCI-H727 | 0.671 | 1.05 | 0.752 | 0.58 | 0.63 | 0.376 | 0.39 | – | 0.382 | 0.419 | – | 0.81 | 0.809 | 0.426 | 0.29 | 0.598 | 0.556 | 0.647 | 0.621 | 0.668 |
| LOU-NH91 | 0.813 | 0.806 | 0.803 | 0.715 | 0.782 | 0.772 | 0.774 | 0.814 | 0.725 | 0.309 | 0.785 | 0.799 | 0.779 | 0.447 | 0.271 | 0.677 | 0.638 | 0.76 | 0.584 | 0.347 |
| NCI-H1975 | 0.375 | 0.452 | 0.376 | 0.34 | 0.363 | 0.345 | 0.337 | 0.364 | 0.158 | 0.158 | 0.931 | 0.907 | 0.71 | 0.302 | 0.179 | 0.964 | 0.956 | 0.795 | 0.557 | 0.215 |
| PC-3 [JPC-3] | 0.822 | 0.902 | 0.91 | 0.77 | 0.814 | 0.717 | 0.83 | 0.689 | 0.664 | 0.375 | 0.456 | 0.486 | 0.439 | 0.413 | 0.318 | 0.899 | 0.902 | 0.961 | 1.01 | 0.59 |
